Test results reported in PubChem BioAssay AID330 (DTP/NCI, 2004).
Where “and” joins values, the source holds several entries; their conditions need not be identical. Equal entries are not always repeated. Toxic doses and inconclusive results are not listed. The calls were made as follows: active = survival T/C of 150% or more; inactive = T/C below 125% in these data.

Tested on: P388 leukemia ip, CD2F1 mice, survival T/C
Assay: NCI In Vivo Anticancer Drug Screen. Data for tumor model P388 Leukemia (intraperitoneal) in CD2F1 (CDF1) mice
Details: endpoint: median survival time, higher = longer survival
Procedure, shortened: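 Mice carrying the transplanted tumor received test compound or vehicle. Survival was recorded in each group, and the value is the treated-group measurement divided by that of the vehicle-treated control group.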

[1] = dose: 50.0 mg/kg/injection, schedule: Q01DX005 (ip), vehicle: Klucel (hydroxypropylcellulose) (HPC)
[2] = dose: 100.0 mg/kg/injection, schedule: Q01DX005 (ip), vehicle: Klucel (hydroxypropylcellulose) (HPC)
[3] = dose: 200.0 mg/kg/injection, schedule: Q01DX005 (ip), vehicle: Klucel (hydroxypropylcellulose) (HPC)
[4] = dose: 100.0 mg/kg/injection, schedule: Q01DX009 (ip), vehicle: Klucel (hydroxypropylcellulose) (HPC)
[5] = dose: 200.0 mg/kg/injection, schedule: Q01DX009 (ip), vehicle: Klucel (hydroxypropylcellulose) (HPC)
[6] = dose: 50.0 mg/kg/injection, schedule: Q01DX009 (ip), vehicle: saline with Tween-80
[7] = dose: 100.0 mg/kg/injection, schedule: Q01DX009 (ip), vehicle: saline with Tween-80
[8] = dose: 12.5 mg/kg/injection, schedule: Q04DX003 (ip), vehicle: saline
[9] = dose: 25.0 mg/kg/injection, schedule: Q04DX003 (ip), vehicle: saline
[10] = dose: 25.0 mg/kg/injection, schedule: Q01DX009 (ip), vehicle: saline
[11] = dose: 50.0 mg/kg/injection, schedule: Q01DX009 (ip), vehicle: saline
[12] = dose: 100.0 mg/kg/injection, schedule: Q01DX009 (ip), vehicle: saline
[13] = dose: 200.0 mg/kg/injection, schedule: Q01DX009 (ip), vehicle: saline
[14] = dose: 60.0 mg/kg/injection, schedule: Q01DX005 (ip), vehicle: Klucel (hydroxypropylcellulose) (HPC)
[15] = dose: 120.0 mg/kg/injection, schedule: Q01DX005 (ip), vehicle: Klucel (hydroxypropylcellulose) (HPC)
[16] = dose: 240.0 mg/kg/injection, schedule: Q01DX005 (ip), vehicle: Klucel (hydroxypropylcellulose) (HPC)
[17] = dose: 60.0 mg/kg/injection, schedule: Q01DX005 (ip), vehicle: saline with Tween-80
[18] = dose: 120.0 mg/kg/injection, schedule: Q01DX005 (ip), vehicle: saline with Tween-80
[19] = dose: 240.0 mg/kg/injection, schedule: Q01DX005 (ip), vehicle: saline with Tween-80

Measured: T/C

O=C1c2c(Cl)ccc([N+](=O)[O-])c2C(=O)c2c(Cl)ccc([N+](=O)[O-])c21
inactive: dose: 12.5 mg/kg/injection, schedule: Q01DX005 (ip), vehicle: Klucel (hydroxypropylcellulose) (HPC) 106 % of control | dose: 25.0 mg/kg/injection, schedule: Q01DX005 (ip), vehicle: Klucel (hydroxypropylcellulose) (HPC) 104 % of control | [1] 99 % of control and 104 % of control | [2] 94 % of control | [3] 94 % of control

Cc1ccc(S(=O)(=O)NC(=O)C2C(=O)CC3(CCCCC3)CC2=O)cc1
inactive: dose: 50.0 mg/kg/injection, schedule: Q01DX009 (ip), vehicle: Klucel (hydroxypropylcellulose) (HPC) 117 % of control | [4] 123 % of control | [5] 124 % of control

C=CC(O)CC#N (stereo not given)
inactive: dose: 18.75 mg/kg/injection, schedule: Q01DX009 (ip), vehicle: saline with Tween-80 102 % of control | dose: 37.5 mg/kg/injection, schedule: Q01DX009 (ip), vehicle: saline with Tween-80 102 % of control | dose: 75.0 mg/kg/injection, schedule: Q01DX009 (ip), vehicle: saline with Tween-80 108 % of control

CC(C)(C)C1CC=CC(=O)CC1 (stereo not given)
inactive: [4] 111 % of control | [5] 119 % of control

CN(C)NCCCCCNN(C)C
inactive: [1] 100 % of control | [2] 102 % of control | [3] 102 % of control

CS(=O)(=O)c1cc(=O)[nH]c(=O)[nH]1
inactive: dose: 25.0 mg/kg/injection, schedule: Q01DX009 (ip), vehicle: saline with Tween-80 90 % of control | [6] 95 % of control | [7] 100 % of control | dose: 200.0 mg/kg/injection, schedule: Q01DX009 (ip), vehicle: saline with Tween-80 95 % of control

CCC1NC(C)(C)CC1=C(C)C (stereo not given)
inactive: dose: 6.25 mg/kg/injection, schedule: Q04DX003 (ip), vehicle: saline 105 % of control | [8] 110 % of control | [9] 110 % of control

CCCCCCC[CH2][Sn]([F])([F])[CH2]CCCCCCC
inactive: [8] 102 % of control | [9] 106 % of control and 108 % of control | dose: 50.0 mg/kg/injection, schedule: Q04DX003 (ip), vehicle: saline 106 % of control and 116 % of control | dose: 100.0 mg/kg/injection, schedule: Q04DX003 (ip), vehicle: saline 101 % of control and 109 % of control and 121 % of control

O=c1ccc(=O)[nH][nH]1
inactive: [10] 102 % of control | [11] 105 % of control and 88 % of control | [12] 99 % of control and 102 % of control | [13] 99 % of control and 100 % of control | dose: 400.0 mg/kg/injection, schedule: Q01DX009 (ip), vehicle: saline 99 % of control and 110 % of control

CNC(=S)N/N=C/Cn1cc([N+](=O)[O-])c(=O)[nH]c1=O
inactive: [1] 98 % of control | [2] 100 % of control

COc1cc2c(c(OC)c1OC)-c1ccc(O)c(=O)cc1C(NC(C)=O)CC2 (stereo not given)
inactive: dose: 2.5 mg/kg/injection, schedule: Q01DX009 (ip), vehicle: Klucel (hydroxypropylcellulose) (HPC) 100 % of control | dose: 5.0 mg/kg/injection, schedule: Q01DX009 (ip), vehicle: Klucel (hydroxypropylcellulose) (HPC) 99 % of control | dose: 10.0 mg/kg/injection, schedule: Q01DX009 (ip), vehicle: Klucel (hydroxypropylcellulose) (HPC) 100 % of control and 102 % of control | dose: 20.0 mg/kg/injection, schedule: Q01DX009 (ip), vehicle: Klucel (hydroxypropylcellulose) (HPC) 107 % of control and 115 % of control | dose: 40.0 mg/kg/injection, schedule: Q01DX009 (ip), vehicle: Klucel (hydroxypropylcellulose) (HPC) 108 % of control | dose: 80.0 mg/kg/injection, schedule: Q01DX009 (ip), vehicle: Klucel (hydroxypropylcellulose) (HPC) 110 % of control

Cc1ccc(-c2nc(N)[nH]c2-c2ccc(C)cc2)cc1
inactive: dose: 5.0 mg/kg/injection, schedule: Q04DX002 (ip), vehicle: saline with Tween-80 104 % of control | dose: 10.0 mg/kg/injection, schedule: Q04DX002 (ip), vehicle: saline with Tween-80 100 % of control | dose: 20.0 mg/kg/injection, schedule: Q04DX002 (ip), vehicle: saline with Tween-80 99 % of control

CN=S(=O)(c1ccccc1)C1(C)CC(C)=C(C)CS1=O (stereo not given)
inactive: dose: 60.0 mg/kg/injection, schedule: Q01DX005 (ip), vehicle: saline 94 % of control | dose: 120.0 mg/kg/injection, schedule: Q01DX005 (ip), vehicle: saline 97 % of control | dose: 240.0 mg/kg/injection, schedule: Q01DX005 (ip), vehicle: saline 103 % of control

O=C(O)CSCC(=O)Nc1cc(C(F)(F)F)cc(C(F)(F)F)c1
inactive: [14] 95 % of control | [15] 98 % of control | [16] 113 % of control

Fc1cccc(Cl)c1C(Nc1nc2ccccc2s1)Nc1nc2ccccc2s1
inactive: [14] 98 % of control | [15] 101 % of control | [16] 95 % of control

COC(=O)Nc1ccc2c(c1)Cc1cc(NC(=O)OC)ccc1-2
inactive: dose: 50.0 mg/kg/injection, schedule: Q01DX005 (ip), vehicle: saline with Tween-80 94 % of control | dose: 100.0 mg/kg/injection, schedule: Q01DX005 (ip), vehicle: saline with Tween-80 92 % of control | dose: 200.0 mg/kg/injection, schedule: Q01DX005 (ip), vehicle: saline with Tween-80 90 % of control

O=C(c1ccc([N+](=O)[O-])cc1)c1cc2ccccc2oc1=O
inactive: [17] 91 % of control | [18] 94 % of control | [19] 90 % of control

O=C(C[P+](c1ccccc1)(c1ccccc1)c1ccccc1)c1ccccc1
inactive: [17] 105 % of control | [18] 108 % of control | [19] 96 % of control

CCC(O)CN(C)Cc1cc2c(c3ccccc13)CCCC2 (stereo not given)
inactive: [11] 106 % of control | [12] 108 % of control

O=C(O)c1cc2ccccc2c(Br)c1O.O=[N+]([O-])C1CCC(O)C2[N-]CCCC21.[Cu+]
inactive: dose: 6.25 mg/kg/injection, schedule: Q01DX005 (ip), vehicle: saline with Tween-80 97 % of control | dose: 12.5 mg/kg/injection, schedule: Q01DX005 (ip), vehicle: saline with Tween-80 100 % of control and 106 % of control | dose: 25.0 mg/kg/injection, schedule: Q01DX005 (ip), vehicle: saline with Tween-80 106 % of control and 98 % of control

OC1(c2ccc(-c3ccc(-c4ccc(C5(O)C(c6ccccc6)=C(c6ccccc6)C(c6ccccc6)=C5c5ccccc5)cc4)cc3)cc2)C(c2ccccc2)=C(c2ccccc2)C(c2ccccc2)=C1c1ccccc1
inactive: dose: 100.0 mg/kg/injection, schedule: Q04DX003 (ip), vehicle: Klucel (hydroxypropylcellulose) (HPC) 93 % of control | dose: 200.0 mg/kg/injection, schedule: Q04DX003 (ip), vehicle: Klucel (hydroxypropylcellulose) (HPC) 90 % of control | dose: 400.0 mg/kg/injection, schedule: Q04DX003 (ip), vehicle: Klucel (hydroxypropylcellulose) (HPC) 93 % of control

Cc1cc(=O)oc2c3c(c4c(c12)OC(C)(C)C=C4)OC(C)(C)C=C3
inactive: [17] 89 % of control | [18] 88 % of control

COc1ccc2c(CC(=O)O)cc(=O)oc2c1
inactive: [17] 102 % of control | [18] 120 % of control | [19] 99 % of control

CC(C)C(NC(=O)OCC1c2ccccc2-c2ccccc21)C(=O)O (stereo not given)
inactive: [1] 104 % of control | [2] 99 % of control | [3] 98 % of control

C[Si]c1ccccc1CN(C)C
inactive: dose: 50.0 mg/kg/injection, schedule: Q01DX005 (ip), vehicle: saline 106 % of control | dose: 100.0 mg/kg/injection, schedule: Q01DX005 (ip), vehicle: saline 102 % of control

CC1CCC(C(C)C)C([c-]2[c-][c-][c-][c-]2)C1.CC1CCC(C(C)C)C([c-]2[c-][c-][c-][c-]2)C1.[Cl][Zr][Cl] (stereo not given)
inactive: dose: 6.25 mg/kg/injection, schedule: Q01DX001 (ip), vehicle: Klucel (hydroxypropylcellulose) (HPC) 110 % of control | dose: 12.5 mg/kg/injection, schedule: Q01DX001 (ip), vehicle: Klucel (hydroxypropylcellulose) (HPC) 100 % of control | dose: 25.0 mg/kg/injection, schedule: Q01DX001 (ip), vehicle: Klucel (hydroxypropylcellulose) (HPC) 103 % of control

O=C(Nc1ccccc1)Sc1nc2ccccc2s1
inactive: [11] 102 % of control | [12] 104 % of control | [13] 104 % of control

CCCCCC[N+]1(CC)CCCCC1
inactive: dose: 6.25 mg/kg/injection, schedule: Q01DX009 (ip), vehicle: saline 107 % of control | dose: 12.5 mg/kg/injection, schedule: Q01DX009 (ip), vehicle: saline 105 % of control | [10] 107 % of control

CCC(=O)c1ccc(O)c(O)c1
inactive: [6] 104 % of control | [7] 105 % of control
